# Source: patent US8148355B2, “Phophylactic and therapeutic use of hydroxysteroids” (Hunter-Fleming Limited, priority 2001, dated 2012)
# Several values for one entry are separate records, joined by “and”; a condition that tells them apart may be missing. Equal entries are not always repeated.
# Columns and labels:
# [1] = tested on: Organotypic hippocampal slice cultures (CA1 cell layer); assay: Hypoxic neuronal damage in organotypic hippocampal slice cultures (PI fluorescence in CA1); type: cell-based, Wistar rat; conditions: for effect on hypoxic damage in CA1 (in words): pre-
# Method: Protocol For Studying Hypoxic Neuronal Damage
# Organotypic hippocampal slice cultures were prepared using the basic method of Pringle et al (1996, 1997) modified as follows:
# Wistar rat pups (8-11 days old) were decapitated and the hippocampus rapidly dissected into ice-cold Gey's balanced salt solution supplemented with 4.5 mg/ml glucose. Slices were separated and plated onto Millicell CM culture inserts (4 per well) and maintained at 37° C./5% CO2 for 14 days. Maintenance medium consisted of 25% heat-inactivated horse serum, 25% Hank's balanced salt solution (HBSS) and 50% minimum essential medium with added Earle's salts (MEM) supplemented with 1 mM glutamine and 4.5 mg/ml glucose. Medium was changed every 3-4 days.
# Experimental hypoxia was performed as described previously (Pringle et al., 1996; 1997). Briefly, cultures were transferred to serum free medium (SFM-75% MEM, 25% HBSS supplemented with 1 mM glutamine and 4.5 mg/ml glucose) containing 5 μg/ml of the fluorescent exclusion dye propidium iodide (PI). Cultures were allowed to equilibrate in SFM for 60 minutes prior to imaging. PI fluorescence was detected using a Leica inverted microscope fitted with a rhodamine filter set. Any cultures in which PI fluorescence was detected at this stage were excluded from further study. Hypoxia was induced by transferring cultures to SFM (+PI) which had been saturated with 95% N2/5% CO2. Culture plates (without lids) were then sealed into an airtight chamber in which the atmosphere was saturated with 95% N2/5% CO2 by continuously blowing through gas at 10 liters/minute for ten minutes before being sealed and placed in the incubator for 170 minutes (total time of hypoxia was therefore 180 minutes). At the end of the hypoxic period cultures were returned to normoxic SFM containing PI and placed back in the incubator for 24 hours.
# Neuronal damage was assessed as described previously (Pringle et al., 1996; 1997) using either NIH Image 1.60 running on an Apple IIsi computer or OpenLab 2.1 (Improvision) running on a Macintosh G4/400. Images were captured using a monochrome camera and saved onto optical disk for offline analysis. Light transmission images were captured prior to the addition of drugs, and PI fluorescence images recorded at the end of the 24-hour post-hypoxia recovery period. The area of the CA1 cell layer was determined from the transmission image. The area of PI fluorescence in CA1 was measured using the density slice function within NIH Image or OpenLab, and neuronal damage expressed as the percentage of the CA1 in which PI fluorescence was detected above background.
# Steroid compounds were prepared by making an initial 1 mg/ml solution in ethanol and further diluting down in SFM. Compounds were added to the cultures for 45 minutes prior to hypoxia, during the hypoxic episode and during the post-hypoxic recovery period. Control experiments consisted of cultures treated with vehicle alone.
# [2] = tested on: Langendorf perfused male rat hearts; assay: Cardioprotective effect in Langendorf perfused rat hearts (regional ischaemia/reperfusion, infarct size); parameters: species or system Wistar rats; conditions: 100 nM in perfusate, 30 min regional ischaemia, 120 min reperfusion
# Method: The study was designed to test the potential anti-ischaemic and cardioprotective effect of 7β-OH EPIA in Langendorf perfused male rat hearts. The end point for evaluation of protection in this model is infarct size (protection against lethal injury, cell death). The infarct size model used is based on a standardised ischaemic insult followed by reperfusion. In the current study, treatment was added ex vivo (to the perfusion solution of the isolated heart) for 30 minutes prior to infarction and continued through 30 minutes regional ischaemia (infarction) and 120 minutes of reperfusion. Based on results from pilot studies, a concentration of 100 nM was used and compared to vehicle treated hearts. The drug was dissolved in DMSO (vehicle) and the final concentration of DMSO in the perfusion solution was 1:10^−6.
# Animals were housed in the animal department of the University of Tromsø and treated according to the guidelines formulated by the European Convention for the protection of vertebrate animals used for experimental or other purposes. Supply of Wistar rats were from Harland (The Netherlands), and the rats stayed in the animal department for one week before experiments were started. Animal weight was restricted to 240-380 g, and only male hearts were used. This corresponds to age 60-120 days. […]
# The perfusion pressure was 100 mm H2O. […] Heart rate was calculated from pressure recordings. […]
# [3] = tested on: hippocampal CA1 pyramidal cells; assay: Global cerebral ischaemia in rats, 4 vessel occlusion (intact CA1 neurons, Nissl staining); type: in vivo, male Wistar rats
# Method: Cerebral ischaemia was induced by four-vessel-occlusion (4VO) in male Wistar rats (250-280 g). Both vertebral arteries were occluded by electrocauterization in pentobarbital anaesthesia (60 mg/kg i.p.). The animals were allowed to recover for 24 hours with free access to water but not food. The next day the carotid arteries were exposed under 2% halothane in 30% oxygen/70% nitrous oxide anaesthesia and were occluded for 10 minutes using microvascular clamps. Subsequently, both clamps were removed and both arteries were inspected for immediate reperfusion. During the operation and the following 3 hours normothermia of the animals (37.5±0.5° C.) was maintained by using a thermostatically controlled heating blanket connected to a rectal thermometer. For control, in sham-operated animals both vertebral arteries were cauterised in pentobarbital anaesthesia and both common carotid arteries were exposed but not clamped under 2% halothane in 30% oxygen/70% nitrous oxide anaesthesia the following day. The wound was treated with lidocaine gel and then sutured. The animals were kept under a heating lamp at 30° C. environmental temperature until they regained consciousness.
# Seven groups of animals were investigated: • 1. (n=8) steroid compound, 7β-OH EPIA (0.1 mg/kg, i.v. via tail vein, three injections: 15 minutes prior to the induction of ischaemia, during ischaemia and 5 minutes after reperfusion); • 2. (n=8) steroid compound, 7β-OH EPIA (0.3 mg/kg, i.v. three injections as described in 1.); • 3. (n=8) steroid compound, 7β-OH EPIA (1 mg/kg, i.v., three injections as described in 1.); • 4. (n=8) NBQX (disodium salt, because more water soluble) as reference substance and positive control (TOCRIS, Germany, 30 mg/kg, i.p., three injections as described in 1.); • 5. (n=8) received vehicle (0.9% NaCl, containing 100 μl Ethanol) three injections as described in 1.); • 6. (n=8) ischaemia alone; • 7. (n=8) sham operated controls.
# The substances were dissolved in 100 μl ethanol and finally diluted with 0.9% NaCl.
# After a survival time of 7 days after ischaemia, all animals were perfusion fixed tanscardially with 4% paraformaldehyde. The brains were then removed carefully and postfixed in the same fixative for 2 hours. After cryoprotection in 30% sucrose, the brains were rapidly frozen in isopentane and stored at −80° C. Twenty-micrometer cryostat sections comprising the hippocampal formation were Nissl stained with toluidine blue or NeuroTrace fluorescence.
# The severity of neuronal damage in the hippocampal CA1 region after ischaemia was evaluated by the number of surviving neurons using Nissl staining. The mean number of morphologically intact neurons per 400 μm length was calculated in CA1 region for each group. Cell counting was performed in 3-5 serial sections per animal and 6 times 400 μm CA1 area per section using a light microscope equipped with a 20× objective. The data were statistically analysed by paired Student's t-test. Data were presented as mean±SEM.
# Morphological intact hippocampal CA1 neurons were characterised by Nissl staining (toluidine blue and NeuroTrace) with the following criteria: clear shape of a neuronal perikarya, large nucleus with a positive labelled nucleolus, a small cytoplasm zone around the nucleus with positive Nissl staining, indicating the intact rough endoplasmic reticulum with ribosomes and therefore the intact protein synthesis machinery.
# [4] = Experiment 1, 100 nM, during and post-hypoxia
# [5] = Experiment 1, 100 nM, present pre-, during and post-hypoxia, control hypoxia 25.5 ± 6.4
# [6] = 30 mg/kg, three injections, 10 min global ischaemia, 7 days survival
smiles,measurement,setting,value
"C[C@]12CC[C@H](O)C[C@@H]1C[C@H](O)[C@@H]1[C@@H]2CC[C@]2(C)C(=O)CC[C@@H]12 [7βOH-EPIA, 7β-hydroxyepiandrosterone]",effect on hypoxic damage in CA1 (in words),[1]; [4],significantly reduced
same,% Damage in CA1,[1]; [5],9.0 ± 4.7 %
same,neuroprotection against hypoxia (in words),"[1]; Experiment 2, 1 nM",activity was lost
same,% Damage in CA1,"[1]; Experiment 2, 1 nM, control hypoxia 31.9 ± 4.7",20.6 ± 7.2%
same,neuroprotection against hypoxia (in words),"[1]; Experiment 2, 10 nM and 100 nM",significantly neuroprotective
same,% Damage in CA1,"[1]; Experiment 2, 10 nM, control hypoxia 31.9 ± 4.7",11.9 ± 4.7 %
same,% Damage in CA1,"[1]; Experiment 2, 100 nM, control hypoxia 31.9 ± 4.7",14.3 ± 5.0 %
same,Infarct volume,[2]; control 38.9,14.1
same,Infarct/risk zone (%),[2]; control 46.3,14.4+/−1.22% and 14.4%
same,"neuroprotective effect, t-test analysis (in words)",[3]; 0.1 mg/kg (p=0.01) and 0.3 mg/kg (p=0.0008),highly significant neuroprotective effect
same,neuroprotective effect on CA1 pyramidal cells compared to the sham operated group,"[3]; 0.1 mg/kg i.v., three injections, 10 min global ischaemia, 7 days survival",74.8%
same,neuroprotective effect on CA1 pyramidal cells compared to the sham operated group,"[3]; 0.3 mg/kg i.v., three injections, 10 min global ischaemia, 7 days survival",83.9%
same,neuroprotection of CA1 pyramidal cells (in words),"[3]; 1.0 mg/kg i.v., three injections","only a tendency to neuroprotection, but the effect was not significant"
same,behavioural abnormalities of the animals,"[3]; injected i.v. prior, during and after ischaemia",never observed any behavioural abnormalities
"NS(=O)(=O)c1cccc2c1c([N+](=O)[O-])cc1nc(O)c(O)nc12 [NBQX, 2,3-dihydroxy-6-nitro-7-sulfamoyl-benzo(F)quinoxaline, reference compound]",neuroprotection in CA1 pyramidal cells compared to the ischaemia group (in words),"[3]; 30 mg/kg, three injections",significant (p=0.03) neuroprotection
same,neuroprotection compared to the ischaemia alone,[3]; [6],47.5%
same,protective effect compared to the sham operated animals,[3]; [6],68.5%
"C[C@]12CC[C@H](O)CC1=C[C@H](O)[C@@H]1[C@@H]2CC[C@]2(C)C(=O)CC[C@@H]12 [7βOH-DHEA, 7β-hydroxy-DHEA]",effect on neuronal damage (in words),"[1]; Experiment 3, 100 nM pre-, during and post-hypoxia","a large, highly significant, reduction in neuronal damage"
same,% Damage in CA1,"[1]; Experiment 3, 100 nM pre-, during and post-hypoxia, control hypoxia 29.0 ± 6.2",4.1 ± 1.9 %
"C[C@]12CC[C@H](O)C[C@@H]1C[C@@H](O)[C@@H]1[C@@H]2CC[C@]2(C)C(=O)CC[C@@H]12 [7αOH-EPIA, 7α-Hydroxy-EPIA]",effect on hypoxic damage in CA1 (in words),[1]; [4],significantly reduced
same,% Damage in CA1,[1]; [5],4.0 ± 2.9 %
